Results from patent US12043670B2, “Anti-BCMA antibody-drug conjugates and methods of use” (Eisai R&D Management Co., Ltd., priority 2020, dated 2024).
pIC50: −log10 of the molar value. Where two headings read alike, the source gives them in different places.

Key:
[1] = system: MM1.S cells; experiment: CellTiter-Glo cell viability, MM1.S; assay type: cell-based, human; settings: for GI50: Homo sapiens
[2] = target: T1, SF3b complex (Homo sapiens, UniProt O75533+Q7RTV0); experiment: SF3B1 binding / scintillation proximity assay (SPA); settings: competition with 2.5 nM [3H]-pladienolide B probe
T1 construct: endogenous in cells; host or cells: nuclear extracts
Description: A scintillation proximity assay was performed to measure the binding affinity of compounds (“payloads”) to the SF3b complex. Batch immobilization of anti-SF3B1 antibody (MBL) to anti-mouse PVT SPA scintillation beads (PerkinElmer) was prepared. For every 2.5 mg of nuclear extracts, 5 μg of anti-SF3B1 antibody and 1.5 mg of beads were mixed in 150 μL PBS. The antibody-bead mixture was incubated for 30 min at room temperature (RT) and centrifuged at 18,000 g for 5 min. 150 μL PBS was used to resuspend every 1.5 mg antibody-bead mixture. The beads were suspended and added to the prepared nuclear extracts. The slurry was incubated for 2 hours at 4° C. with gentle mixing. The beads were then collected by centrifuging at 18,000 g for 5 min, and washed twice with PBS+0.1% Triton X-100. After a final centrifugation step, every 1.5 mg of beads was suspended with 150 μL of PBS. SF3b complexes were tested for [^3H]-labeled pladienolide B probe binding ([^3H]-PB), synthesized as previously described (Kotake et al. (2007) Nat Chem Biol. 3(9):570-5). 100 μL binding reactions were prepared with 50 μL bead slurry and by adding varying concentrations of PB or PB-OH, and after 30 min pre-incubation, 2.5 nM of [^3H]-PB was added. The mixture was incubated for 30 min, and luminescence signals were read using a MicroBeta2 Plate Counter (PerkinElmer). […]

[3] = system: AMO-1 cells; experiment: 6-day CellTiter-Glo cell viability, AMO-1; assay type: cell-based, human
[4] = Chemical stability in buffer pH 5.5; assay type: physicochemical; settings: Mcilvane (Citrate-Phosphate) buffer pH 5.5, 37° C., read-out: Stability %, Mean, t1/2 pH 5.5 (converted)
Description: Payloads were incubated in Mcilvane (Citrate-Phosphate) buffer, pH 5.5 (Boston Bioproducts; #BB-2466) at a final concentration of 20 μM (less than 0.5% DMSO from stock solution). The payload solution and the internal standard were pipetted into 96-well plates, run on UPLC (Waters Aquity H class), and analyzed for initial chromatographic signal (t=0). The column was a Waters UPLC HSS T31.8 μm 2.1×50 mm column (#186003538). A gradient of mobile phase A from 95% to 10% was employed over 1 min, where A was 0.1% formic acid in water and mobile phase B was 0.1% formic acid in acetonitrile (flow rate 0.9 mL/min). The remainder of the payload solution was kept in a plate shaker at 37° C. (Eppendorf ThermoMixer). Sample analyses by UPLC were repeated at 24, 72, and 96 hours post-incubation at 37° C. The area ratio response of the payload and internal standard was determined for three time points: time 0, day 1, and either day 3 or day 4. Time 0 was set to 100. The area ratio responses of the later time points were compared to time 0. Percent remaining was calculated as follows: (Area Ratio day X/Area Ratio time 0)*100=% remaining. The slope of the line was calculated in Excel comparing the log of % remaining and time point.

[5] = system: EJM cells; experiment: 6-day CellTiter-Glo cell viability, EJM; assay type: cell-based, human
[6] = PAMPA permeability; assay type: in vitro ADME; settings: read-out: Stability, Mean, Perm PAMPA
[7] = system: MOLP8 cells; experiment: CellTiter-Glo cell viability, MOLP8; assay type: cell-based, human
[8] = system: RPMI-8226 cells; experiment: 6-day CellTiter-Glo cell viability, RPMI-8226; assay type: cell-based, human
[9] = system: KMS-11 cells; experiment: 6-day CellTiter-Glo cell viability, KMS-11; assay type: cell-based, human
[10] = system: OPM2 cells; experiment: CellTiter-Glo cell viability, OPM2 (normal serum); assay type: cell-based, human; settings: for GI50: Homo sapiens

Q: Which GI50 ([1]; MM1.S, 96 h, read-out: CTGlo Mean GI50 MM1.S 96 h) does the source give for `CC[C@H](O)[C@@H](C)[C@H]1O[C@@H]1C[C@@](C)(O)/C=C/C=C(\C)[C@H]1OC(=O)C[C@H](O)CC[C@@](C)(O)[C@@H](OC(=O)N2CCNCC2)/C=C/[C@@H]1C` [D1, (2S,3S,6S,7R,10R,E)-7,10-dihydroxy-2-((R,2E,4E)-6-hydroxy-7-((2R,3R)-3-((2R,3S)-3-hydroxypentan-2-yl)oxiran-2-yl)-6-methylhepta-2,4-dien-2-yl)-3,7-dimethyl-12-oxooxacyclododec-4-en-6-yl piperazine-1-carboxylate] here?
A: 37.1 nM

Q: What about the GI50 ([1]; MM1.S, 144 h) of the same compound?
A: 88.4 nM

Q: What about the “AUC (nM * % relative viability)” value ([1]; MM1S cells, 6 days) of the same compound?
A: 644.3501 nM * % relative viability

Q: What about the LD50 ([1]; MM1S cells, 6 days, CellTiter-Glo) of the same compound?
A: 302.924 nM

Q: What about the RminAve ([1]; MM1S cells, 6 days, negative = cell death vs T0) of the same compound?
A: −99.8996%

Q: And the “CTGlo Mean LD50 MM1.S 96 h” value ([1]; payload alone, MM1.S, 96 h)?
A: 98.2 nM

Q: What about the pIC50 [2] of the same compound?
A: 7.67

Q: What about the “AUC (nM * % relative viability)” value ([3]; AMO1 cells, 6 days) of the same compound?
A: 797.7136 nM * % relative viability

Q: And the LD50 ([3]; AMO1 cells, 6 days, CellTiter-Glo)?
A: 1689.735 nM

Q: What about the RminAve ([3]; AMO1 cells, 6 days, negative = cell death vs T0) of the same compound?
A: −99.4709%

Q: What about the GI50 ([3]; Homo sapiens, AMO1, 144 h) of the same compound?
A: 567 nM

Q: And the half-life at 20 μM [4]?
A: 24 h

Q: What about the “AUC (nM * % relative viability)” value ([5]; EJM cells, 6 days) of the same compound?
A: 664.163 nM * % relative viability

Q: What about the LD50 ([5]; EJM cells, 6 days, CellTiter-Glo) of the same compound?
A: 303.5191 nM

Q: And the RminAve ([5]; EJM cells, 6 days, negative = cell death vs T0)?
A: −99.0579%

Q: And the GI50 ([5]; Homo sapiens, EJM, 144 h)?
A: 140 nM

Q: And the Papp [6]?
A: < 0.1 ×10⁻⁶ cm/s

Q: What about the GI50 ([7]; Homo sapiens, MOLP-8, 144 h) of the same compound?
A: 150 nM

Q: And the “AUC (nM * % relative viability)” value ([7]; MOLP8 cells, 6 days)?
A: 690.1106 nM * % relative viability

Q: What about the LD50 ([7]; MOLP8 cells, 6 days, CellTiter-Glo) of the same compound?
A: 533.6503 nM

Q: And the RminAve ([7]; MOLP8 cells, 6 days, negative = cell death vs T0)?
A: −99.755%

Q: What about the GI50 ([8]; Homo sapiens, RPMI-8226, 144 h) of the same compound?
A: 122 nM

Q: What about the “AUC (nM * % relative viability)” value ([8]; RPMI8226 cells, 6 days) of the same compound?
A: 648.8833 nM * % relative viability

Q: What about the LD50 ([8]; RPMI8226 cells, 6 days, CellTiter-Glo) of the same compound?
A: 253.1965 nM

Q: And the RminAve ([8]; RPMI8226 cells, 6 days, negative = cell death vs T0)?
A: −99.6002%

Q: And the GI50 ([9]; Homo sapiens, KMS-11, 144 h)?
A: 232 nM

Q: And the “AUC (nM * % relative viability)” value ([9]; KMS11 cells, 6 days)?
A: 706.5255 nM * % relative viability

Q: What about the LD50 ([9]; KMS11 cells, 6 days, CellTiter-Glo) of the same compound?
A: 485.9409 nM

Q: What about the RminAve ([9]; KMS11 cells, 6 days, negative = cell death vs T0) of the same compound?
A: −99.3474%

Q: What about the GI50 ([10]; OPM-2, 96 h, read-out: CTGlo Mean GI50 OPM2 96 h) of the same compound?
A: 287 nM

Q: What about the GI50 ([10]; OPM-2, 144 h) of the same compound?
A: 117 nM

Q: What about the “AUC (nM * % relative viability)” value ([10]; OPM2 cells, 6 days) of the same compound?
A: 649.8734 nM * % relative viability

Q: And the LD50 ([10]; OPM2 cells, 6 days, CellTiter-Glo)?
A: 256.8053 nM

Q: What about the RminAve ([10]; OPM2 cells, 6 days, negative = cell death vs T0) of the same compound?
A: −99.7805%

Q: And the “CTGlo Mean LD50 OPM2 96 h” value ([10]; payload alone, OPM2, 96 h)?
A: 67.1 nM
